Experimental data from US4904764A, “4-diazo-3-methyl-2,5-cyclohexadine-1-one and pharmacetically acceptable salts thereof” (E. R. Squibb & Sons, Inc., priority 1985, dated 1990).
In brackets after ≈: the same amount, converted by molar mass.

Experiments:
[1] = tested on: Salmonella typhosa SC1195; test: Agar dilution assay, aerobic test organisms (MIC); conditions: Salmonella enterica, 18 h
[2] = tested on: Staphylococcus aureus SC2400; test: Agar dilution assay, aerobic test organisms (MIC); conditions: SC2400, 18 h
[3] = tested on: Bacteroides thetaiotamicron SC10278; test: Agar dilution assay, anaerobic bacteria (MIC); format: cell-based; conditions: B. thetaiotamicron SC10278, DST agar, 10^5 CFU, 37° C., 18 hours, anaerobic chamber
[4] = tested on: gram positive and gram negative bacteria; test: Antibacterial activity (general statement); format: cell-based
[5] = tested on: Clostridium difficile SC11251; test: Agar dilution assay, anaerobic bacteria (MIC); format: cell-based; conditions: Clostridioides difficile; C. difficile SC11251; DST agar, 10^5 CFU, 37° C., 18 hours, anaerobic chamber
[6] = tested on: Streptococcus faecalis SC9011; test: Agar dilution assay, aerobic test organisms (MIC); conditions: Enterococcus faecalis, SC9011, 18 h
[7] = tested on: Escherichia colid SC10909; test: Agar dilution assay, aerobic test organisms (MIC); conditions: SC10909, 18 h
[8] = tested on: Pseudomonas anaerobius SC11263; test: Agar dilution assay, anaerobic bacteria (MIC); format: cell-based; conditions: DST agar, 10^5 CFU, 37° C., 18 hours, anaerobic chamber
[9] = tested on: Bacteroides thetaiotamicron SC9005; test: Agar dilution assay, anaerobic bacteria (MIC); format: cell-based; conditions: B. thetaiotamicron SC9005, DST agar, 10^5 CFU, 37° C., 18 hours, anaerobic chamber
[10] = tested on: Enterobacter cloacae SC8236; test: Agar dilution assay, aerobic test organisms (MIC); conditions: SC8236, 18 h
[11] = tested on: Clostridium perfringens SC11256; test: microbe, parasite or virus in culture; format: cell-based; conditions: SC11256, 18 h
[12] = tested on: Staphylococcus aureus SC1276; test: Agar dilution assay, aerobic test organisms (MIC); conditions: SC1276, 18 h
[13] = tested on: Klebsiella pneumoniae SC9527; test: Agar dilution assay, aerobic test organisms (MIC); conditions: SC9527, 18 h
[14] = tested on: Bacteroides fragilis SC10277; test: Agar dilution assay, anaerobic bacteria (MIC); format: cell-based; conditions: B. fragilis SC10277, DST agar, 10^5 CFU, 37° C., 18 hours, anaerobic chamber
Shigella sonnei SC8449 = test: Agar dilution assay, aerobic test organisms (MIC); format: cell-based; conditions: S. sonnei SC8449, K-10 agar, 10^4 CFU, 37° C., 18 hours, protected from light
[15] = tested on: Hemophilus vaginalis SC8568; test: Agar dilution assay, anaerobic bacteria (MIC); format: cell-based; conditions: Gardnerella vaginalis; H. vaginalis SC8568; DST agar, 10^5 CFU, 37° C., 18 hours, anaerobic chamber
[16] = tested on: Hemophilus vaginalis SC9640; test: Agar dilution assay, anaerobic bacteria (MIC); format: cell-based; conditions: Gardnerella vaginalis; H. vaginalis SC9640; DST agar, 10^5 CFU, 37° C., 18 hours, anaerobic chamber
Escherichia coli SC8294 = test: Agar dilution assay, aerobic test organisms (MIC); conditions: SC8294, 18 h
[17] = tested on: Klebsiella aerogenes SC10440; test: Agar dilution assay, aerobic test organisms (MIC); conditions: SC10440, 18 h
[18] = Photolability (half-life); format: physicochemical; conditions: exposure to light; read-out: photolabile, half-life
[19] = tested on: Bacteroides fragilis SC9844; test: Agar dilution assay, anaerobic bacteria (MIC); format: cell-based; conditions: B. fragilis SC9844, DST agar, 10^5 CFU, 37° C., 18 hours, anaerobic chamber
Escherichia coli SC10896 = test: Agar dilution assay, aerobic test organisms (MIC); conditions: SC10896, 18 h
[20] = tested on: Fusobacterium necrophorum SC10338; test: Agar dilution assay, anaerobic bacteria (MIC); format: cell-based; conditions: F. necrophorum SC10338, DST agar, 10^5 CFU, 37° C., 18 hours, anaerobic chamber
[21] = tested on: Pseudomonas aeruginosa SC8333; test: Agar dilution assay, aerobic test organisms (MIC); conditions: SC8333, 18 h
Proteus mirabilis SC3855 = test: Agar dilution assay, aerobic test organisms (MIC); conditions: SC3855, 18 h
[22] = tested on: Staphylococcus aureus SC2399; test: Agar dilution assay, aerobic test organisms (MIC); conditions: SC2399, 18 h
[23] = tested on: Bacteroides fragilis SC11085; test: Agar dilution assay, anaerobic bacteria (MIC); format: cell-based; conditions: B. fragilis SC11085, DST agar, 10^5 CFU, 37° C., 18 hours, anaerobic chamber
[24] = tested on: Streptococcus agalactiae SC9287; test: Agar dilution assay, aerobic test organisms (MIC); conditions: SC9287, 18 h
[25] = tested on: Clostridium septicum SC1780; test: Agar dilution assay, anaerobic bacteria (MIC); format: cell-based; conditions: SC1780, 18 h
Protocol: The susceptibility of a number of anaerobic bacteria was also determined by an agar dilution technique. Test organisms were prepared from 24-48 hour cultures grown in Chopped Meat Broth (Scott Laboratories, Fiskeville, R.I.) or from washings from chocolate agar slants. These slants were prepared by adding hemoglobin to Proteose #3 Agar (Difco) to a concentration of one percent. The growth was washed off the slants with Brain Heart Infusion Broth (BBL Microbiology Systems) and diluted to a density of 10^8 CFU/ml. The subject compound was dissolved in the appropriate diluent at a concentration of 1000 μg/ml.
The agar dilution assays yielded the following results: […]

Q: What does the source list for `COC1=CC(=O)C=CC1=[N+]=[N-]`?
A: MIC [1]: 1.6 µg/mL (≈ 10.7 µM); MIC [2]: 12.5 µg/mL (≈ 83.3 µM); MIC [3]: 0.4 µg/mL (≈ 2.66 µM); activity against bacteria [4]: activity against a variety of gram positive and gram negative bacteria, particularly against anaerobic bacteria; MIC [5]: 0.4 µg/mL (≈ 2.66 µM); MIC [6]: 6.3 µg/mL (≈ 42 µM); MIC [7]: 3.1 µg/mL (≈ 20.6 µM); MIC [8]: < 0.05 µg/mL; MIC [9]: 0.4 µg/mL (≈ 2.66 µM); MIC [10]: 50 µg/mL (≈ 333 µM); MIC [11]: 0.2 µg/mL (≈ 1.33 µM); MIC [12]: 2.5 µg/mL (≈ 16.7 µM); MIC [13]: 25 µg/mL (≈ 167 µM); MIC [14]: 0.4 µg/mL (≈ 2.66 µM); MIC (Shigella sonnei SC8449): 1.6 µg/mL (≈ 10.7 µM); MIC [15]: 0.2 µg/mL (≈ 1.33 µM); MIC [16]: 0.4 µg/mL (≈ 2.66 µM); MIC (Escherichia coli SC8294): 3.1 µg/mL (≈ 20.6 µM); MIC [17]: 12.5 µg/mL (≈ 83.3 µM); half-life [18]: < 2 h; MIC [19]: 0.4 µg/mL (≈ 2.66 µM); MIC (Escherichia coli SC10896): 6.3 µg/mL (≈ 42 µM); MIC [20]: < 0.05 µg/mL; MIC [21]: 25 µg/mL (≈ 167 µM); MIC (Proteus mirabilis SC3855): 3.1 µg/mL (≈ 20.6 µM); MIC [22]: 12.5 µg/mL (≈ 83.3 µM); MIC [23]: 0.2 µg/mL (≈ 1.33 µM); MIC [24]: 6.3 µg/mL (≈ 42 µM); MIC [25]: < 0.05 µg/mL
